Laboratory results taken from US20210371855A1, “METHODS OF INHIBITING PROLIFERATIVE CELLS” (IDEAYA BIOSCIENCES, INC., priority 2018, published 2021).

What was measured:
[1] = tested on: MLH1 reexpressing cells; experiment: 6-thioguanine sensitivity of MLH1 reexpressing cells; format: cell-based; conditions: FIG. 8C
[2] = tested on: MMR-deficient cells; conditions: Yan et al. 2003; cited from earlier work
[3] = tested on: MMR-proficient cells; conditions: Yan et al. 2003; cited from earlier work
[4] = tested on: MSS cell lines, SW620 and SW948; experiment: Proliferation with WRN inhibitors, IncuCyte live-cell counting over 6 days; format: cell-based; conditions: SW620 and SW948, 6 days, FIG. 12
Protocol: (§1) Cell lines were infected with NucLight Red lentivirus (Essen Biosciences cat #4476) to express a red fluorescent protein in the nucleus thus enabling live-cell counting. Two cell lines with high microsatellite instability (MSI), HCT116 and RKO, and two microsatellite stable (MSS) cell lines, SW620 and SW948, were treated with WRN inhibitors, NSC 19630 (Calbiochem cat #681647) and NSC 617145 (Sigma cat #SML 1005) as follows. Cells were counted and seeded in triplicate into a 96-well plate (500 cells/well for MSI and 1000 cells/well for MSS). The next day, the cells were treated with compounds and monitored over 6 days in an IncuCyte ZOOM instrument. The cell count from the last time point was used to calculate IC50 values using GraphPad Prism 7.

[5] = tested on: MSI cell lines, HCT116 and RKO; experiment: as above; format: cell-based; conditions: FIG. 12
Protocol: as §1

| SMILES | sensitivity of cells to 6-TG [1] | sensitivity of cells to 6-thioguanine [2] | sensitivity of cells to 6-thioguanine [3] | sensitivity of MSS cell lines to the inhibitors [4] | effect on proliferation of MSI cell lines [5] |
| --- | --- | --- | --- | --- | --- |
| Nc1nc2nc[nH]c2c(=S)[nH]1 [6-TG, 6-thioguanine] | more sensitive | resistant | sensitive |  |  |
| CC(C)(CN1C(=O)C(Cl)=C(Cl)C1=O)CN1C(=O)C(Cl)=C(Cl)C1=O [NSC 617145] |  |  |  | differences in sensitivity | decreased proliferation |
| CCC(=O)OCN1C(=O)C=CC1=O [NSC 19630] |  |  |  | differences in sensitivity | decreased proliferation |
